Data from ChEMBL document CHEMBL1201862, “PubChem BioAssay data set” (2004).
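In this assay, cells in 96-well plates receive the compound at five concentrations for 48 hours. Endpoints are linearly interpolated between the surrounding concentrations. Abbreviation: GI50, concentration required for 50% inhibition of growth.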 Calls of active or inactive are those of the source. Rule as the data show it: active = GI50 up to about 1.1 µM and inactive = higher. Where a SMILES comes first, the peptide text is derived from it. [ ]: non-standard residue; d: D form. The star is where a group is joined. Hyp = O=C(O)[CH]1C[CH](O)CN1; Cbz = O=C(OCc1ccccc1)*

Assays:
Experiment in all cases: NCI anticancer screen, dose series, 48 h
OVCAR-8 = system: OVCAR-8
Malme-3M = system: Malme-3M
MCF7 = system: MCF7
SK-MEL-5 = system: SK-MEL-5
HCT-116 = system: HCT-116
SK-MEL-28 = system: SK-MEL-28
SF-539 = system: SF-539
HL-60 = system: HL-60
T47D = system: T47D
BT-549 = system: BT-549
SR = system: SR
UACC-257 = system: UACC-257
CCRF-CEM = system: CCRF-CEM
K562 = system: K562
RXF 393 = system: RXF 393
SF-268 = system: SF-268
HOP-62 = system: HOP-62
IGROV-1 = system: IGROV-1
LOX IMVI = system: LOX IMVI
UO-31 = system: UO-31

Measured: GI50

CN(C1=NCCO1)c1cccc2c1CCCC2
inactive: OVCAR-8 5.3 µM | Malme-3M 2.76 µM | MCF7 4.51 µM | SK-MEL-5 2.11 µM | HCT-116 2.99 µM | SK-MEL-28 6.01 µM | SF-539 3.25 µM | HL-60 4.41 µM | T47D 8.85 µM | BT-549 9.53 µM | SR 1.21 µM | UACC-257 3.92 µM | CCRF-CEM 1.15 µM | K562 4.78 µM | RXF 393 3.64 µM | SF-268 5.33 µM | HOP-62 7.08 µM | IGROV-1 2.75 µM | LOX IMVI 2.58 µM

O=C(CC(Cc1ccccc1)c1ccc(Oc2ccccc2)cc1)Nc1cccc(Cl)c1 (stereo not given)
inactive: UO-31 4.24 µM | OVCAR-8 3.96 µM | Malme-3M 15 µM | MCF7 3.42 µM | SK-MEL-5 11.3 µM | HCT-116 3.6 µM | SK-MEL-28 9.16 µM | SF-539 26.1 µM | HL-60 3.02 µM | T47D 2.92 µM | BT-549 7.67 µM | SR 4.94 µM | UACC-257 11 µM | CCRF-CEM 3.49 µM | K562 3.34 µM | RXF 393 5.41 µM | SF-268 19.2 µM | HOP-62 3.83 µM | IGROV-1 2.9 µM | LOX IMVI 3.73 µM

COc1ccc(Oc2nc3cc(C(F)(F)F)ccc3nc2C(C)C)cc1
inactive: UO-31 32.6 µM | OVCAR-8 25.2 µM | Malme-3M 24.7 µM | MCF7 18.8 µM | SK-MEL-5 22.2 µM | HCT-116 31 µM | SK-MEL-28 48 µM | SF-539 41.5 µM | HL-60 18.7 µM | T47D 15.1 µM | BT-549 22.4 µM | SR 16.7 µM | UACC-257 26.1 µM | CCRF-CEM 39.6 µM | K562 24.6 µM | RXF 393 15.8 µM | SF-268 32.7 µM | HOP-62 40.4 µM | IGROV-1 23.3 µM | LOX IMVI 15.3 µM

CC(C)(C)C1=CC(=C2C=Cc3cc(O)ccc3O2)C=C(C(C)(C)C)C1=O
inactive: UO-31 1.24 µM | OVCAR-8 1.7 µM | Malme-3M 1.59 µM | SK-MEL-5 1.58 µM | HCT-116 1.17 µM | SK-MEL-28 1.73 µM | SF-539 1.87 µM | BT-549 1.79 µM | UACC-257 1.57 µM | K562 2.13 µM | RXF 393 1.45 µM | SF-268 1.81 µM | HOP-62 1.92 µM | IGROV-1 1.59 µM | LOX IMVI 1.56 µM
active: MCF7 1.07 µM | HL-60 1.08 µM | T47D 0.627 µM | SR 0.731 µM | CCRF-CEM 0.745 µM

CCOC(=O)NC1=C(N2CC2)C(=O)C(NC(=O)OCC)=C(N2CC2)C1=O [DIAZIQUONE]
active: HL-60 0.357 µM | SR 0.339 µM | HOP-62 0.741 µM
inactive: UO-31 5.56 µM | OVCAR-8 3.73 µM | Malme-3M 6.49 µM | MCF7 1.98 µM | SK-MEL-5 3.72 µM | HCT-116 3.53 µM | SK-MEL-28 13 µM | SF-539 1.75 µM | T47D 6.21 µM | BT-549 11.4 µM | UACC-257 4.65 µM | CCRF-CEM 1.37 µM | K562 5.43 µM | RXF 393 4.68 µM | SF-268 2.81 µM | IGROV-1 5.33 µM | LOX IMVI 2.31 µM

NC(=O)CNC(=O)C1CC(O)CN1C(=O)C1CCCN1C(=O)OCc1ccccc1 (stereo not drawn) (Cbz-Pro-[Hyp]-Gly-NH2; configuration not given here)
inactive: UO-31 > 100 µM | OVCAR-8 > 100 µM | Malme-3M > 100 µM | MCF7 > 100 µM | SK-MEL-5 > 100 µM | HCT-116 > 100 µM | SK-MEL-28 > 100 µM | HL-60 > 100 µM | T47D > 100 µM | BT-549 > 100 µM | SR > 100 µM | UACC-257 > 100 µM | CCRF-CEM > 100 µM | K562 > 100 µM | RXF 393 > 100 µM | SF-268 > 100 µM | HOP-62 > 100 µM | IGROV-1 > 100 µM | LOX IMVI > 100 µM

CC(C)C(=O)/C=C/c1c(Cl)cccc1Cl
inactive: UO-31 4.3 µM | OVCAR-8 3.86 µM | Malme-3M 4.45 µM | MCF7 3.76 µM | SK-MEL-5 4.95 µM | HCT-116 1.64 µM | SK-MEL-28 5.81 µM | SF-539 3.04 µM | HL-60 5.36 µM | T47D 2.95 µM | BT-549 2.64 µM | SR 1.91 µM | UACC-257 7.41 µM | CCRF-CEM 11.6 µM | K562 9.35 µM | RXF 393 5.43 µM | SF-268 2.39 µM | HOP-62 5.83 µM | IGROV-1 3.75 µM | LOX IMVI 2.47 µM

COC(=O)[C@@H]1C[C@H]2OC(=O)CC[C@]2(C)O[C@H]1[C@H]1O[C@@](C)(O)CCC[C@H]1C
inactive: UO-31 > 50 µM | OVCAR-8 > 50 µM | Malme-3M > 50 µM | MCF7 > 50 µM | SK-MEL-5 > 50 µM | HCT-116 > 50 µM | SK-MEL-28 > 50 µM | SF-539 > 50 µM | HL-60 8.95 µM | T47D > 50 µM | BT-549 > 50 µM | SR > 50 µM | UACC-257 > 50 µM | CCRF-CEM 14.5 µM | K562 > 50 µM | RXF 393 > 50 µM | SF-268 > 50 µM | HOP-62 > 50 µM | IGROV-1 > 50 µM | LOX IMVI 6.07 µM

Fc1ccc2c(c1)nc1n2C(c2c(F)cccc2F)SC1 (stereo not given)
inactive: UO-31 25 µM | OVCAR-8 37.1 µM | Malme-3M 55.1 µM | MCF7 42.1 µM | SK-MEL-5 21.8 µM | HCT-116 25.6 µM | SK-MEL-28 > 100 µM | SF-539 > 100 µM | HL-60 20.7 µM | T47D 31 µM | BT-549 42.5 µM | SR 18.1 µM | UACC-257 52.7 µM | RXF 393 62.2 µM | SF-268 53.2 µM | HOP-62 66.7 µM | IGROV-1 64.9 µM | LOX IMVI 45.7 µM

NS(=O)(=O)c1nnc(NS(=O)(=O)c2ccc([N+](=O)[O-])cc2)s1
inactive: UO-31 > 100 µM | OVCAR-8 > 100 µM | Malme-3M > 100 µM | MCF7 > 100 µM | SK-MEL-5 69.2 µM | HCT-116 > 100 µM | SK-MEL-28 > 100 µM | SF-539 > 100 µM | HL-60 > 100 µM | T47D 34.9 µM | BT-549 > 100 µM | SR 32.7 µM | K562 33.6 µM | RXF 393 > 100 µM | SF-268 > 100 µM | HOP-62 > 100 µM | IGROV-1 > 100 µM | LOX IMVI 30.4 µM

COc1cc(S(=O)(=O)Nc2ccc(-c3csc(N4C(=O)C(C)SC4c4cccs4)n3)cc2)ccc1Cl (stereo not given)
active: HOP-62 0.558 µM
inactive: UO-31 46.3 µM | OVCAR-8 32.4 µM | Malme-3M 60.5 µM | MCF7 > 100 µM | SK-MEL-5 41.3 µM | HCT-116 35.1 µM | SK-MEL-28 23.8 µM | SF-539 48.9 µM | HL-60 18.7 µM | T47D 10.8 µM | BT-549 34 µM | SR 33.8 µM | CCRF-CEM 8.28 µM | K562 28.4 µM | RXF 393 11.1 µM | SF-268 22.5 µM | IGROV-1 29.1 µM | LOX IMVI 5.27 µM

CC1=NN=C(N)NC1=CC(Sc1ccc(Cl)cc1)c1c(O)ccc2ccccc12 (stereo not given)
inactive: UO-31 6.07 µM | OVCAR-8 16.7 µM | Malme-3M 3.88 µM | MCF7 20 µM | SK-MEL-5 8.07 µM | HCT-116 18.9 µM | SK-MEL-28 14 µM | HL-60 > 10 µM | T47D 8.51 µM | BT-549 13.6 µM | SR 17.4 µM | UACC-257 20.9 µM | CCRF-CEM 4.73 µM | K562 38.5 µM | RXF 393 4.75 µM | SF-268 11.3 µM | HOP-62 20.2 µM | IGROV-1 13 µM | LOX IMVI 19.3 µM

COC(=O)C1OC(O[C@H]2CC[C@]3(C)[C@H]4CC=C5[C@@H]6CC(C)(C)CC[C@]6(C(=O)OC6OCC(O)C(O)C6OC6OC(C)C(OC7OCC(OC8OCC(O)C(O)C8O)C(O)C7O)C(O)C6O)[C@H](O)C[C@@]5(C)[C@]4(C)CC[C@H]3C2(C)C)C(O)C(O)C1O (stereo not given in full)
active: MCF7 0.69 µM
inactive: UO-31 1.75 µM | OVCAR-8 5.27 µM | Malme-3M 4.16 µM | SK-MEL-5 3.4 µM | HCT-116 2.19 µM | SK-MEL-28 2.08 µM | SF-539 11.4 µM | HL-60 3.21 µM | T47D 1.43 µM | BT-549 2.04 µM | SR 3.05 µM | UACC-257 3.09 µM | CCRF-CEM 17.3 µM | RXF 393 11.4 µM | SF-268 4.72 µM | HOP-62 5.33 µM | IGROV-1 4.57 µM | LOX IMVI 8.53 µM

C1CCNCC1.O=C1NC(=S)N/C1=C/c1ccccc1O
inactive: UO-31 95.3 µM | OVCAR-8 > 100 µM | Malme-3M > 100 µM | MCF7 > 100 µM | SK-MEL-5 > 100 µM | HCT-116 > 100 µM | SK-MEL-28 > 100 µM | SF-539 > 100 µM | HL-60 > 100 µM | T47D 56.2 µM | BT-549 > 100 µM | SR > 100 µM | UACC-257 > 100 µM | CCRF-CEM > 100 µM | RXF 393 > 100 µM | SF-268 > 100 µM | HOP-62 > 100 µM | IGROV-1 99.1 µM | LOX IMVI > 100 µM
